Key:
[1] = target: T1, Solute carrier organic anion transporter family member 1B3 (Homo sapiens, UniProt Q9NPD5); conditions: chinese hamster, cho, 10 µM
T1 sequence (Q9NPD5 whole entry): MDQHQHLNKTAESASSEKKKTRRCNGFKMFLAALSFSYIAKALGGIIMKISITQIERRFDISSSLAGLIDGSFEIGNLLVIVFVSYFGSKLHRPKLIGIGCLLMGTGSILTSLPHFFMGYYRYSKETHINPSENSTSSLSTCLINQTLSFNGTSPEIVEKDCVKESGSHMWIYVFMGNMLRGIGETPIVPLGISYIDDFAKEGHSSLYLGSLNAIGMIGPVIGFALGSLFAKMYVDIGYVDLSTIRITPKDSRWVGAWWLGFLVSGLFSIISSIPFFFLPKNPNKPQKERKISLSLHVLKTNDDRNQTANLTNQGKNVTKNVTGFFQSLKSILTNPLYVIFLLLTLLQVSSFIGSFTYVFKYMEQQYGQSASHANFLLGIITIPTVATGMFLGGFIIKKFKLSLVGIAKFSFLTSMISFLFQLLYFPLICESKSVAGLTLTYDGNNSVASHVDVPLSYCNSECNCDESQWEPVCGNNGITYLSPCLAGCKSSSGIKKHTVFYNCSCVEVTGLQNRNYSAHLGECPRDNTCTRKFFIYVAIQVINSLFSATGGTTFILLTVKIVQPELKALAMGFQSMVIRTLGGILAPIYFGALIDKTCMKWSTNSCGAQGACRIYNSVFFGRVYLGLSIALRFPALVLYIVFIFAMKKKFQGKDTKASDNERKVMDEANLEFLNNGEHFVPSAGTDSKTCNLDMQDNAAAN

[2] = target: T2, Solute carrier organic anion transporter family member 1B1 (Homo sapiens, UniProt Q9Y6L6)
T2 sequence (Q9Y6L6 whole entry): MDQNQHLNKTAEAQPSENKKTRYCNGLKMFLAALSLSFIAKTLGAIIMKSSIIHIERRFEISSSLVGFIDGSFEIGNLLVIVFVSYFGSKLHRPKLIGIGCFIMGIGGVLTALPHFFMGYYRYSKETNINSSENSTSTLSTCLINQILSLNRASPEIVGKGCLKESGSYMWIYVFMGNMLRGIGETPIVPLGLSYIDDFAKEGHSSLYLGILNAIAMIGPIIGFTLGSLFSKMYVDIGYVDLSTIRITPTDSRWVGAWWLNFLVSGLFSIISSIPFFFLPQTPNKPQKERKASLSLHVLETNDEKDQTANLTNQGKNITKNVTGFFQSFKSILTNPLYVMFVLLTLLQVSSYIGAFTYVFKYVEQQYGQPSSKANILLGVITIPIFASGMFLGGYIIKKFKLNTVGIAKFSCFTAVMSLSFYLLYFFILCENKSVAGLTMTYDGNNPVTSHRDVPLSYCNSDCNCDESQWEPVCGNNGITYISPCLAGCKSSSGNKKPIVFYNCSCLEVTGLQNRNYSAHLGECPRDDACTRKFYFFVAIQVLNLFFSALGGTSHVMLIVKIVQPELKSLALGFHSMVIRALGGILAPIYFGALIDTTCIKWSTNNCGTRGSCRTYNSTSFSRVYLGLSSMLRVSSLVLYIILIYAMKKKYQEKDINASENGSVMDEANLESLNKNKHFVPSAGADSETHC

[3] = target: T2, Solute carrier organic anion transporter family member 1B1; conditions: chinese hamster, cho, 10 µM
[4] = target: T2, Solute carrier organic anion transporter family member 1B1; remark: listed apart in the source
[5] = target: T1, Solute carrier organic anion transporter family member 1B3
[6] = target: T1, Solute carrier organic anion transporter family member 1B3; remark: listed apart in the source

CC(C)=CCC[C@]1(C)C=Cc2c(O)c3c(c(CC=C(C)C)c2O1)O[C@]12C(C[C@@H]4C[C@H]1C(C)(C)O[C@@]2(C/C=C(/C)C(=O)O)C4O)C3=O (some centres not stated)
residual activity [1]: 4.414% | IC50 [2]: 2000 nM | residual activity [3]: 12.48% | Ki [4]: 1100 nM | IC50 [5]: 2.82 µM | Ki [6]: 2160 nM

CC(=O)O[C@@H]1C[C@H]2C(C)(C)C(=O)CC[C@]2(C)[C@H]2CC[C@]3(C)C(=CC(=O)O[C@H]3c3ccoc3)[C@@]21C
residual activity [1]: 54.65% | IC50 [2]: 3550 nM | residual activity [3]: 22.81% | Ki [4]: 1940 nM | IC50 [5]: 7.76 µM | Ki [6]: 5990 nM

CC(=O)O[C@H]1C[C@@H](OC(C)=O)C(C)(C)[C@@H]2C[C@@H](OC(C)=O)[C@]3(C)[C@H]([C@H](OC(C)=O)C[C@@]4(C)[C@H](c5ccoc5)OC(=O)[C@H]5O[C@@]534)[C@@]12C
residual activity [1]: 46.1% | IC50 [2]: 871 nM | residual activity [3]: 20.57% | Ki [4]: 480 nM | IC50 [5]: 3.98 µM | Ki [6]: 3050 nM

CC(=O)O[C@@H]1CC[C@]2(C)[C@H](C[C@@H](OC(C)=O)[C@]3(C)C4=CC(=O)O[C@H](c5ccoc5)[C@@]4(C)CC[C@@H]23)C1(C)C
residual activity [1]: 8.019% | IC50 [2]: 813 nM | residual activity [3]: 18.95% | Ki [4]: 440 nM | IC50 [5]: 1.41 µM | Ki [6]: 1080 nM

CC(=O)O[C@@H]1C[C@@H]2C(C)(C)[C@H](O)C=C[C@@]2(C)[C@@H]2CC[C@@]3(C)C(=CC(=O)O[C@@H]3c3ccoc3)[C@@]12C
residual activity [1]: 23.16% | IC50 [2]: 2190 nM | residual activity [3]: 6.132% | Ki [4]: 1210 nM | IC50 [5]: 3.72 µM | Ki [6]: 2890 nM

CC(=O)O[C@@H]1C[C@@H]2C(C)(C)C(=O)C=C[C@@]2(C)[C@@H]2CC[C@@]3(C)C(=CC(=O)O[C@@H]3c3ccoc3)[C@@]12C
residual activity [1]: 22.73% | IC50 [2]: 1510 nM | residual activity [3]: 8.693% | Ki [4]: 830 nM | IC50 [5]: 3.8 µM | Ki [6]: 2890 nM

CC(=O)O[C@H]1C[C@@H](OC(C)=O)C(C)(C)[C@@H]2C[C@@H](O)[C@@]3(C)[C@H](CC[C@]4(C)[C@@H](c5ccoc5)OC(=O)[C@H]5O[C@@]534)[C@@]12C
residual activity [1]: 9.535% | IC50 [2]: 977 nM | residual activity [3]: 14.28% | Ki [4]: 540 nM | IC50 [5]: 2.95 µM | Ki [6]: 2270 nM

O=C(O[C@@H]1Cc2c(O)cc(O)cc2O[C@@H]1c1cc(O)c(O)c(O)c1-c1c([C@H]2Oc3cc(O)cc(O)c3C[C@H]2O)cc(O)c(O)c1O)c1cc(O)c(O)c(O)c1 [2',2'-BISEPIGALLOCATECHIN MONOGALLATE]
residual activity [1]: 18.79% | IC50 [2]: 3720 nM | residual activity [3]: 31.07% | Ki [4]: 2050 nM | IC50 [5]: 8.51 µM | Ki [6]: 6500 nM

CC(C)C1=CC2=CC[C@@H]3[C@](C)(CCC[C@@]3(C)C(=O)O)[C@H]2CC1 [ABIETIC ACID]
residual activity [1]: 33.77% | IC50 [2]: 2690 nM | residual activity [3]: 7.365% | Ki [4]: 1470 nM | IC50 [5]: 5.25 µM | Ki [6]: 4080 nM

CC(=O)Oc1c2c(c(CC=C(C)C)c3c1C(=O)C1=C[C@@H]4CC5C(C)(C)OC(C/C=C(\C)C(=O)O)(C4=O)[C@@]15O3)OC(C)(CCC=C(C)C)C=C2 (some centres not stated) [ACETYL ISOGAMBOGIC ACID]
residual activity [1]: 30.34% | IC50 [2]: 4070 nM | residual activity [3]: 10.38% | Ki [4]: 2240 nM | IC50 [5]: 5.37 µM | Ki [6]: 4170 nM

CC(=O)O[C@@H]1C[C@@]2(C)[C@H](c3ccoc3)C[C@H]3O[C@]32[C@]2(C)C(=O)C(O)=C3C(C)(C)C(=O)C=C[C@]3(C)C12 (some centres not stated) [ANTHOTHECOL]
residual activity [1]: 12.42% | IC50 [2]: 3020 nM | residual activity [3]: 20.37% | Ki [4]: 1650 nM | IC50 [5]: 3.47 µM | Ki [6]: 2640 nM

CCCCC/C=C\C/C=C\C/C=C\C/C=C\CCCC(=O)O [ARACHIDONIC ACID]
residual activity [1]: 5.402% | IC50 [2]: 603 nM | residual activity [3]: 23.4% | Ki [4]: 330 nM | IC50 [5]: 1.07 µM | Ki [6]: 820 nM

O=C1C=CC(=C(c2ccc(O)cc2)c2ccc(O)cc2)C=C1 [AURIN]
residual activity [1]: 20.35% | IC50 [2]: 2630 nM | residual activity [3]: 4.068% | Ki [4]: 1430 nM | IC50 [5]: 4.07 µM | Ki [6]: 3150 nM

C=CC1=C(C)/C(=C/c2[nH]c(Cc3[nH]c(/C=C4\NC(=O)C(C)=C4C=C)c(C)c3CCC(=O)O)c(CCC(=O)O)c2C)NC1=O [BILIRUBIN]
residual activity [1]: 32.05% | IC50 [2]: 1320 nM | residual activity [3]: 15.29% | Ki [4]: 720 nM | IC50 [5]: 3.39 µM | Ki [6]: 2630 nM

COC(=O)C[C@H]1C2(C)CC34OC5(C)O[C@@]6([C@H](OC(C)=O)C(OC(C)=O)[C@]7(C)C(/C(=C(/O)C(C)C)C(=O)O[C@H]7c7ccoc7)[C@@]6(O5)[C@H](OC(C)=O)[C@@]3(O)C2OC(=O)C(C)C)[C@]14C (some centres not stated) [BUSSEIN]
residual activity [1]: 5.392% | IC50 [2]: 692 nM | residual activity [3]: 7.307% | Ki [4]: 380 nM | IC50 [5]: 0.692 µM | Ki [6]: 530 nM

COC(=O)CC[C@@H](C)[C@H]1CC[C@H]2[C@@H]3[C@H](O)C[C@@H]4C[C@H](O)CC[C@]4(C)[C@H]3C[C@H](O)[C@]12C [CHOLIC ACID, METHYL ESTER]
residual activity [1]: 40.87% | IC50 [2]: 8320 nM | residual activity [3]: 26.02% | Ki [4]: 4580 nM | IC50 [5]: 3.72 µM | Ki [6]: 2890 nM

COC(=O)C[C@H]1C2(C)CC34OC5(C)O[C@@]6([C@H](OC)C(OC(=O)C(C)C)[C@]7(C)C(/C(=C(/OC)C(C)C)C(=O)O[C@H]7c7ccoc7)[C@@]6(O5)[C@H](OC)[C@@]3(OC)C2OC(C)=O)[C@]14C (some centres not stated) [CHUKRASIN METHYL ETHER]
residual activity [1]: 3.762% | IC50 [2]: 759 nM | residual activity [3]: 6.829% | Ki [4]: 420 nM | IC50 [5]: 0.724 µM | Ki [6]: 560 nM

CC(C)CCCC1(C)C=Cc2c(O)c3c(c(CCC(C)C)c2O1)OC12C(CC4CC1C(C)(C)OC2(CCC(C)C(=O)O)C4O)C3=O (configuration not stated) [DECAHYDROGAMBOGIC ACID]
residual activity [1]: 18.17% | IC50 [2]: 1150 nM | residual activity [3]: 12.82% | Ki [4]: 620 nM | IC50 [5]: 2.29 µM | Ki [6]: 1770 nM

Cc1onc(-c2c(Cl)cccc2Cl)c1C(=O)N[C@@H]1C(=O)N2[C@@H]1SC(C)(C)[C@@H]2C(=O)[O-].O.[Na+] [DICLOXACILLIN SODIUM]
residual activity [1]: 9.757% | IC50 [2]: 676 nM | residual activity [3]: 11.45% | Ki [4]: 370 nM | IC50 [5]: 2 µM | Ki [6]: 1550 nM

CC(C)=CCCC1(C)C=Cc2c(O)c3c(c(CC=C(C)C)c2O1)OC12C(=CC4CC1C(C)(C)OC2(C/C=C(/C)C(=O)O)C4O)C3=O (configuration not stated) [DIHYDROGAMBOGIC ACID]
residual activity [1]: 17.26% | IC50 [2]: 2240 nM | residual activity [3]: 14.23% | Ki [4]: 1230 nM | IC50 [5]: 2.88 µM | Ki [6]: 2240 nM

COC(=O)/C(C)=C\CC12OC(C)(C)C3CC(C=C4C(=O)c5c(OC)c6c(c(CC=C(C)C)c5OC431)OC(C)(CCC=C(C)C)C=C6)C2=O (configuration not stated) [DIMETHYL GAMBOGATE]
residual activity [1]: 62.06% | IC50 [2]: 2290 nM | residual activity [3]: 23.19% | Ki [4]: 1260 nM | IC50 [5]: 5.13 µM | Ki [6]: 3940 nM

O=C(O[C@@H]1Cc2c(O)cc(O)cc2O[C@@H]1c1ccc(O)c(O)c1)c1cc(O)c(O)c(O)c1 [EPICATECHIN GALLATE]
residual activity [1]: 25.25% | IC50 [2]: 3800 nM | residual activity [3]: 46.4% | Ki [4]: 2070 nM | IC50 [5]: 4.47 µM | Ki [6]: 3460 nM

From ChEMBL document CHEMBL3039007, “Structure-based identification of OATP1B1/3 inhibitors” (Mol Pharmacol, 2013)
